The values that follow are results of earlier work, collected in patent US20200155524A1, “METHOD FOR REDUCING SIDE EFFECTS FROM ADMINISTRATION OF PHOSPHODIESTERASE-4 INHIBITORS” (ARCUTIS, INC., priority 2018, published 2020).

Data set [1] relates to psoriasis. The conditions noted are these: after 4 weeks of dosing.
Data set [2] relates to PDE-4 isoforms and subtypes. To be noted: different PDE-4 isoforms and subtypes.
The conditions of data set [3]: initial oral administration.

Like-named read-outs stand apart in the source and are kept apart here.

Regarding `CCC(=O)OCC(=O)[C@@]1(OC(=O)CC)[C@@H](C)C[C@H]2[C@@H]3CCC4=CC(=O)C=C[C@]4(C)[C@@]3(F)[C@@H](O)C[C@@]21C` [betamethasone dipropionate 0.064%, betamethasone dipropionate], in data set [1], the “PASI 75 response rate” value is on record as 32.7%.
With `O=C(Nc1c(Cl)c[n+]([O-])cc1Cl)c1ccc(OC(F)F)c(OCC2CC2)c1` [roflumilast N-oxide, 3-cyclopropylmethoxy-4-difluoromethoxy-N-(3,5-dichloropyrid-4-yl 1-oxide)benzamide], the “half maximal inhibitory concentration (IC50)” value in data set [2] is given as “subnanomolar”.
`O=C(Nc1c(Cl)cncc1Cl)c1ccc(OC(F)F)c(OCC2CC2)c1` [roflumilast, N-(3,5-dichloropyrid-4-yl)-3-cyclopropylmethoxy-4-difluoromethoxybenzamid-e]: the “Tmax (time after administration to reach Cmax)” value in data set [3] (250 mcg tablet) and in data set [3] (500 mcg tablet) was 1 h throughout. The “half maximal inhibitory concentration (IC50)” value in data set [2] is given as “subnanomolar”.
